Test results as given in US10369138B2, “Monobactam organic compounds for the treatment of bacterial infections” (Novartis AG, priority 2014, dated 2019).
≈ marks a conversion by molar mass, not a printed value. Like-named read-outs stand apart in the source and are kept apart here.

Tests used:
E. coli containing KPC-2 = assay: MIC by broth microdilution, E. coli containing KPC-2 (Ec KPC2 Iso); format: cell-based; details: Escherichia coli, read-out: Ec KPC2 Iso (MIC), E. coli containing KPC-2 (carbapenemase from Klebsiella pneumoniae)
Outline: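 Host E. coli BW25113 pspB carrying multicopy pBAD18-kan plasmid with constitutive TEM-promoter KPC-2 expression (periplasmic signal sequence); broth microdilution per CLSI in cation-adjusted Mueller-Hinton broth, inoculum ~5×10^5 CFU/mL, compounds twofold serially diluted from DMSO masters (10% DMSO in dilution series added).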

E. coli strain 25922 = assay: MIC by broth microdilution, E. coli strain 25922; format: cell-based
Outline: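 CLSI broth microdilution in cation-adjusted Mueller-Hinton broth, inoculum about 5×10^5 CFU/mL, 10% DMSO from the diluted series, 20 h at 35-37° C. MIC is the lowest concentration preventing visible growth, read by eye and at 600 nm.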

[1] = Escherichia coli, 25922, read-out: Ec 25922 (MIC)
[2] = Escherichia coli, 25922, E. coli strain 25922, read-out: Ec 25922 (MIC)

| Compound | MIC (E. coli containing KPC-2) [µg/mL] | MIC (E. coli strain 25922; [1]) [µg/mL] | MIC (E. coli strain 25922; [2]) [µg/mL] |
| --- | --- | --- | --- |
| NCCCNCc1cn(C[C@@H]2[C@H](NC(=O)/C(=N\OC3(C(=O)O)CC3)c3csc(N)n3)C(=O)N2S(=O)(=O)O)nn1 [Example 69, 1-(((Z)-(2-(((2R,3S)-2-((4-(((3-aminopropyl)amino)methyl)-1H-1,2,3-triazol-1-yl)methyl)-4-oxo-1-sulfoazetidin-3-yl)amino)-1-(2-aminothiazol-4-yl)-2-oxoethylidene)amino)oxy)cyclopropanecarboxylic acid compound with formic acid (1:1)] | 0.125 (≈ 0.213 µM) | 0.25 (≈ 0.426 µM) | – |
| CC(C)(O/N=C(\C(=O)N[C@@H]1C(=O)N(S(=O)(=O)O)[C@@H]1CN1CCN(CCN)C1=O)c1csc(N)n1)C(=O)O [Example 70, 2-(((Z)-(2-(((2R,3S)-2-((3-(2-aminoethyl)-2-oxoimidazolidin-1-yl)methyl)-4-oxo-1-sulfoazetidin-3-yl)amino)-1-(2-aminothiazol-4-yl)-2-oxoethylidene)amino)oxy)-2-methylpropanoic acid] | 8 (≈ 14.2 µM) | – | 8 (≈ 14.2 µM) |
| N=C(N[C@H]1CCNC1)c1ccc(OC[C@H](O/N=C(\C(=O)N[C@@H]2C(=O)N(S(=O)(=O)O)[C@@H]2Cn2cncn2)c2csc(N)n2)C(=O)O)cc1 [Example 71, (S)-2-(((Z)-(2-(((2R,3S)-2-((1H-1,2,4-triazol-1-yl)methyl)-4-oxo-1-sulfoazetidin-3-yl)amino)-1-(2-aminothiazol-4-yl)-2-oxoethylidene)amino)oxy)-3-(4-(N—((S)-pyrrolidin-3-yl)carbamimidoyl)phenoxy)propanoic acid] | 0.25 (≈ 0.361 µM) | – | 0.25 (≈ 0.361 µM) |
| CC(C)(O/N=C(\C(=O)N[C@@H]1C(=O)N(S(=O)(=O)O)[C@@H]1CN1C[C@H](CO)OC1=O)c1csc(N)n1)C(=O)O [Example 72, 2-(((Z)-(1-(2-aminothiazol-4-yl)-2-(((2R,3S)-2-(((R)-5-(hydroxymethyl)-2-oxooxazolidin-3-yl)methyl)-4-oxo-1-sulfoazetidin-3-yl)amino)-2-oxoethylidene)amino)oxy)-2-methylpropanoic acid] | 4 (≈ 7.27 µM) | – | 4 (≈ 7.27 µM) |
| N=C(N[C@@H]1CCNC1)c1ccc(OC[C@H](O/N=C(\C(=O)N[C@@H]2C(=O)N(S(=O)(=O)O)[C@@H]2Cn2cncn2)c2csc(N)n2)C(=O)O)cc1 [Example 73, (S)-2-(((Z)-(2-(((2R,3S)-2-((1H-1,2,4-triazol-1-yl)methyl)-4-oxo-1-sulfoazetidin-3-yl)amino)-1-(2-aminothiazol-4-yl)-2-oxoethylidene)amino)oxy)-3-(4-(N—((R)-pyrrolidin-3-yl)carbamimidoyl)phenoxy)propanoic acid] | 0.25 (≈ 0.361 µM) | – | 0.25 (≈ 0.361 µM) |
| CC(C)(O/N=C(\C(=O)N[C@@H]1C(=O)N(S(=O)(=O)O)[C@@H]1Cn1cnc(C(N)=O)n1)c1csc(N)n1)C(=O)O [Example 74, 2-(((Z)-(1-(2-aminothiazol-4-yl)-2-(((2R,3S)-2-((3-carbamoyl-1H-1,2,4-triazol-1-yl)methyl)-4-oxo-1-sulfoazetidin-3-yl)amino)-2-oxoethylidene)amino)oxy)-2-methylpropanoic acid] | 32 (≈ 58.7 µM) | – | 8 (≈ 14.7 µM) |
| N=C(NC1CCNCC1)c1ccc(OC[C@H](O/N=C(\C(=O)N[C@@H]2C(=O)N(S(=O)(=O)O)[C@@H]2Cn2cncn2)c2nsc(N)n2)C(=O)O)cc1 [Example 75, (S)-2-(((Z)-(2-(((2R,3S)-2-((1H-1,2,4-triazol-1-yl)methyl)-4-oxo-1-sulfoazetidin-3-yl)amino)-1-(5-amino-1,2,4-thiadiazol-3-yl)-2-oxoethylidene)amino)oxy)-3-(4-(N-(piperidin-4-yl)carbamimidoyl)phenoxy)propanoic acid] | 0.5 (≈ 0.707 µM) | – | 0.5 (≈ 0.707 µM) |
| CC(C)(O/N=C(\C(=O)N[C@@H]1C(=O)N(S(=O)(=O)O)[C@@H]1CN1CC[C@H](N)C1=O)c1csc(N)n1)C(=O)O [Example 76, 2-(((Z)-(2-(((2R,3S)-2-(((S)-3-amino-2-oxopyrrolidin-1-yl)methyl)-4-oxo-1-sulfoazetidin-3-yl)amino)-1-(2-aminothiazol-4-yl)-2-oxoethylidene)amino)oxy)-2-methylpropanoic acid] | 0.5 (≈ 0.937 µM) | – | 1 (≈ 1.87 µM) |
| N=C(N[C@H]1C[C@H](N)C1)c1ccc(OC[C@H](O/N=C(\C(=O)N[C@@H]2C(=O)N(S(=O)(=O)O)[C@@H]2Cn2cncn2)c2csc(N)n2)C(=O)O)cc1 [Example 77, (S)-2-(((Z)-(2-(((2R,3S)-2-((1H-1,2,4-triazol-1-yl)methyl)-4-oxo-1-sulfoazetidin-3-yl)amino)-1-(2-aminothiazol-4-yl)-2-oxoethylidene)amino)oxy)-3-(4-(N-((1r,3S)-3-aminocyclobutyl)carbamimidoyl)phenoxy)propanoic acid] | 0.125 (≈ 0.181 µM) | – | 0.25 (≈ 0.361 µM) |
| N=C(NCCCN)c1ccc(OC[C@H](O/N=C(\C(=O)N[C@@H]2C(=O)N(S(=O)(=O)O)[C@@H]2Cn2cncn2)c2csc(N)n2)C(=O)O)cc1 [Example 78, (S)-2-(((Z)-(2-(((2R,3S)-2-((1H-1,2,4-triazol-1-yl)methyl)-4-oxo-1-sulfoazetidin-3-yl)amino)-1-(2-aminothiazol-4-yl)-2-oxoethylidene)amino)oxy)-3-(4-(N-(3-aminopropyl)carbamimidoyl)phenoxy)propanoic acid] | 0.125 (≈ 0.184 µM) | – | ≤ 0.06 |
| N=C(NC1CCNCC1)c1ccc(OC[C@H](O/N=C(\C(=O)N[C@@H]2C(=O)N(S(=O)(=O)O)[C@@H]2Cn2cncn2)c2csc(N)n2)C(=O)O)cn1 [Example 79, (S)-2-(((Z)-(2-(((2R,3S)-2-((1H-1,2,4-triazol-1-yl)methyl)-4-oxo-1-sulfoazetidin-3-yl)amino)-1-(2-aminothiazol-4-yl)-2-oxoethylidene)amino)oxy)-3-((6-(N-(piperidin-4-yl)carbamimidoyl)pyridin-3-yl)oxy)propanoic acid] | 0.25 (≈ 0.354 µM) | – | 0.25 (≈ 0.354 µM) |
| CC(C)(O/N=C(\C(=O)N[C@@H]1C(=O)N(S(=O)(=O)O)[C@@H]1CN1CC[C@H](NC(=N)N)C1=O)c1csc(N)n1)C(=O)O [Example 80, 2-(((Z)-(1-(2-aminothiazol-4-yl)-2-(((2R,3S)-2-(((S)-3-guanidino-2-oxopyrrolidin-1-yl)methyl)-4-oxo-1-sulfoazetidin-3-yl)amino)-2-oxoethylidene)amino)oxy)-2-methylpropanoic acid] | 4 (≈ 6.95 µM) | – | 4 (≈ 6.95 µM) |
| N=C(NC1[C@H]2CNC[C@@H]12)c1ccc(OC[C@H](O/N=C(\C(=O)N[C@@H]2C(=O)N(S(=O)(=O)O)[C@@H]2Cn2cncn2)c2csc(N)n2)C(=O)O)cc1 (stereo partly drawn) [Example 81, (S)-2-(((Z)-(2-(((2R,3S)-2-((1H-1,2,4-triazol-1-yl)methyl)-4-oxo-1-sulfoazetidin-3-yl)amino)-1-(2-aminothiazol-4-yl)-2-oxoethylidene)amino)oxy)-3-(4-(N-((1R,5S,6s)-3-azabicyclo[3.1.0]hexan-6-yl)carbamimidoyl)phenoxy)propanoic acid] | 0.125 (≈ 0.178 µM) | 0.125 (≈ 0.178 µM) | – |
| CC(C)(O/N=C(\C(=O)N[C@@H]1C(=O)N(S(=O)(=O)O)[C@@H]1Cc1cc(CN)on1)c1csc(N)n1)C(=O)O [Example 82, 2-(((Z)-(2-(((2R,3S)-2-((5-(aminomethyl)isoxazol-3-yl)methyl)-4-oxo-1-sulfoazetidin-3-yl)amino)-1-(2-aminothiazol-4-yl)-2-oxoethylidene)amino)oxy)-2-methylpropanoic acid] | 0.5 (≈ 0.941 µM) | – | 0.5 (≈ 0.941 µM) |
